Assay [1] has as its target T1, mSUCNR1 (Mus musculus, UniProt Q99MT6).
T1 sequence (Q99MT6 1-317): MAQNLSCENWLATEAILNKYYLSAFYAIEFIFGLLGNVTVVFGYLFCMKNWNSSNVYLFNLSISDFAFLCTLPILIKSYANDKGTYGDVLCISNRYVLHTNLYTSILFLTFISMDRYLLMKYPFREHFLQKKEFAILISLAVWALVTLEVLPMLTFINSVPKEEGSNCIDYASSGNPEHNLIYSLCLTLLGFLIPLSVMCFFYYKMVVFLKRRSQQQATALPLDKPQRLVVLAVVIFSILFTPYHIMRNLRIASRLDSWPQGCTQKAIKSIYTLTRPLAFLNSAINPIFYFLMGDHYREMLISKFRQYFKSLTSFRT
Kind of assay: BRET competition binding using 22 as tracer, mSUCNR1. As to conditions: 1 μM 22, Kd = […]; highest unlabeled ligand 30 μΜ.

Assay [2] has as its target T1, mSUCNR1. Kind of assay: cAMP assay, agonist potency at mSUCNR1. As to conditions: for cAMP mSUCNR1 pEC50: Flp-In T-REx 293 cells, mean ± SEM, minimum three independent experiments. Also noted: expressed in transfected cells; host or cells: Flp-In T-REx 293. Format: cell-based. On the technique in general: Cyclic AMP is a second messenger, typically raised through Gs and lowered through Gi signalling.

Assay [3] concerns the target T2, hSUCNR1 (Homo sapiens, UniProt Q9BXA5).
T2 sequence (Q9BXA5 1-334): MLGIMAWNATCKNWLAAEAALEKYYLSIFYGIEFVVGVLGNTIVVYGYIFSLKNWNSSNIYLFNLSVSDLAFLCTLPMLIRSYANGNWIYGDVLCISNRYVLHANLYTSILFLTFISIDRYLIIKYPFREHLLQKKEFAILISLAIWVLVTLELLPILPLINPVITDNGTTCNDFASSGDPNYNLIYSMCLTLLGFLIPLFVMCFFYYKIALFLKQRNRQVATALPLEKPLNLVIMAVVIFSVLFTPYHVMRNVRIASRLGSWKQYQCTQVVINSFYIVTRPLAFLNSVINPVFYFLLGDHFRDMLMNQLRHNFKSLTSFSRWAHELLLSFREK
Kind of assay: cAMP assay, inhibition of succinate response at hSUCNR1. Format: cell-based. Further details: expressed in transfected cells; host or cells: Flp-In T-REx 293. The note with it: for cAMP hSUCNR1 pIC50: inhibition of […] succinate response, mean ± SEM.

In assay [4] the target is T2, hSUCNR1. Kind of assay: BRET competition binding using 22 as tracer, hSUCNR1. The note with it: 3 μM 22, Kd = 990 nM; mean ± SEM, three experiments.
Assay [5] addresses T2, hSUCNR1. Kind of assay: BRET competition binding using 46 as tracer, hSUCNR1. The note with it: […] 46, Kd = 310 nM. (In general: In BRET a luciferase serves as donor, and the signal depends on an acceptor being close.)
Assay [6] has as its target T3, hmSUCNR1 (Mus musculus, UniProt Q99MT6, G84W/K269N/N18E).
T3 sequence (Q99MT6 1-317 N18E/G84W/K269N): T1 sequence (Q99MT6 1-317) with N18E, G84W, K269N
Kind of assay: BRET competition binding using 46 as tracer, hmSUCNR1.

Assay [7] has as its target T3, hmSUCNR1. Kind of assay: BRET competition binding using 22 as tracer, hmSUCNR1.

As usually defined, the Ki is a measure of affinity in units of concentration, obtained from inhibition or displacement. Read a low Ki as a stronger hold on the target.

Where a chain is given by its changes, count along the chain named. Where a name gives a salt, the structure may show the parent alone. Marks after values point to notes of the source that are not given here. Some results are limits rather than exact numbers.

`CCOc1ccc(-c2ccc(C(=O)N[C@@H](CC(=O)O)C(=O)O)o2)cc1` [Compound 2]: the “Competion binding using 22 mSUCNR1 pKi” value at mSUCNR1 [1] came to 6.2 ± 0.1. For the same molecule, on mSUCNR1 [2], the “cAMP mSUCNR1 pEC50” value is reported as 7.01 ± 0.04.

With `O=C(O)C[C@H](NC(=O)c1cccc(-c2ccc(OC(F)(F)F)cc2)n1)C(=O)O` [Compound 3], at mSUCNR1 [1], the “Competion binding using 22 mSUCNR1 pKi” value came out at 5.8 ± 0.1. In addition, the “cAMP mSUCNR1 pEC50” value on mSUCNR1 [2] stood at 6.58 ± 0.16. With `CC(C)(C)OC(=O)NCCCOc1ccc(-c2ccc(C(=O)N[C@@H](CC(=O)O)C(=O)O)o2)cc1` [Compound 8a, (5-(4-(3-((tert-Butoxycarbonyl)amino)propoxy)phenyl)furan-2-carbonyl)-L-aspartic acid], at mSUCNR1 [2], the “cAMP mSUCNR1 pEC50” value is on record as 6.25 ± 0.09. Take `CC(C)(C)OC(=O)NCCCCOc1ccc(-c2ccc(C(=O)N[C@@H](CC(=O)O)C(=O)O)o2)cc1` [Compound 8b, (5-(4-(4-((tert-Butoxycarbonyl)amino)butoxy)phenyl)furan-2-carbonyl)-L-aspartic acid]: the “cAMP mSUCNR1 pEC50” value on mSUCNR1 [2] stood at 6.47 ± 0.18. As for `CC(C)(C)OC(=O)NCCCCCOc1ccc(-c2ccc(C(=O)N[C@@H](CC(=O)O)C(=O)O)o2)cc1` [Compound 8c, (5-(4-((5-((tert-Butoxycarbonyl)amino)pentyl)oxy)phenyl)furan-2-carbonyl)-L-aspartic acid], the “cAMP mSUCNR1 pEC50” value at mSUCNR1 [2] is listed as 6.60 ± 0.16. The “fold decrease in potency on mSUCNR1” value on mSUCNR1 [2] (relative to agonist scaffold 2) was 2.5 fold. As to `CC(C)(C)OC(=O)NCCCCCCOc1ccc(-c2ccc(C(=O)N[C@@H](CC(=O)O)C(=O)O)o2)cc1` [Compound 8d, (5-(4-((6-((tert-Butoxycarbonyl)amino)hexyl)oxy)phenyl)furan-2-carbonyl)-L-aspartic acid], the “cAMP mSUCNR1 pEC50” value at mSUCNR1 [2] is 6.42 ± 0.11. Regarding `NCCCOc1ccc(-c2ccc(C(=O)N[C@@H](CC(=O)O)C(=O)O)o2)cc1` [Compound 9a, (S)-3-(4-(5-((1,2-Dicarboxyethyl)carbamoyl)furan-2-yl)phenoxy)propan-1-aminium 2,2,2-trifluoroacetate], the “cAMP mSUCNR1 pEC50” value on mSUCNR1 [2] was 7.10 ± 0.11. In the case of `NCCCCOc1ccc(-c2ccc(C(=O)N[C@@H](CC(=O)O)C(=O)O)o2)cc1` [Compound 9b, (5-(4-(4-Aminobutoxy)phenyl)furan-2-carbonyl)-L-aspartic acid hydrochloride], the “cAMP mSUCNR1 pEC50” value at mSUCNR1 [2] is given as 7.13 ± 0.06. Still for that read-out and setting: with `NCCCCCOc1ccc(-c2ccc(C(=O)N[C@@H](CC(=O)O)C(=O)O)o2)cc1` [Compound 9c, (S)-5-(4-(5-((1,2-Dicarboxyethyl)carbamoyl)furan-2-yl)phenoxy)pentan-1-aminium 2,2,2-trifluoroacetate] the figure was 6.91 ± 0.09. As to `NCCCCCCOc1ccc(-c2ccc(C(=O)N[C@@H](CC(=O)O)C(=O)O)o2)cc1` [Compound 9d, (S)-6-(4-(5-((1,2-Dicarboxyethyl)carbamoyl)furan-2-yl)phenoxy)hexan-1-aminium 2,2,2-trifluoroacetate], the “Competion binding using 22 mSUCNR1 pKi” value on mSUCNR1 [1] worked out at 6.2 ± 0.1.

Regarding `CC(C)(C)OC(=O)NCCCOc1ccc(-c2cccc(C(=O)N[C@@H](CC(=O)O)C(=O)O)n2)cc1` [Compound 15a, (6-(4-(3-((tert-Butoxycarbonyl)amino)propoxy)phenyl)picolinoyl)-L-aspartic acid], on mSUCNR1 [2], the “cAMP mSUCNR1 pEC50” value is 5.90 ± 0.08.

As for `CC(C)(C)OC(=O)NCCCCOc1ccc(-c2cccc(C(=O)N[C@@H](CC(=O)O)C(=O)O)n2)cc1` [Compound 15b, (6-(4-(4-((tert-Butoxycarbonyl)amino)butoxy)phenyl)picolinoyl)-L-aspartic acid], the “cAMP mSUCNR1 pEC50” value at mSUCNR1 [2] is recorded as 5.97 ± 0.09. For `CC(C)(C)OC(=O)NCCCCCOc1ccc(-c2cccc(C(=O)N[C@@H](CC(=O)O)C(=O)O)n2)cc1` [Compound 15c, (6-(4-((5-((tert-Butoxycarbonyl)amino)pentyl)oxy)phenyl)picolinoyl)-L-aspartic acid], on mSUCNR1 [2], the “cAMP mSUCNR1 pEC50” value turned out to be 5.68 ± 0.11.

For the molecule `CC(C)(C)OC(=O)NCCCCCCOc1ccc(-c2cccc(C(=O)N[C@@H](CC(=O)O)C(=O)O)n2)cc1` [Compound 15d, (6-(4-((6-((tert-Butoxycarbonyl)amino)hexyl)oxy)phenyl)picolinoyl)-L-aspartic acid], at mSUCNR1 [2], the “cAMP mSUCNR1 pEC50” value is 5.76 ± 0.07.

With `CC(C)(C)OC(=O)NCCOCCOc1ccc(-c2cccc(C(=O)N[C@@H](CC(=O)O)C(=O)O)n2)cc1` [Compound 15e, (6-(4-(2-(2-((tert-Butoxycarbonyl)amino)ethoxy)ethoxy)phenyl)picolinoyl)-L-aspartic acid], at mSUCNR1 [2], the “cAMP mSUCNR1 pEC50” value stood at 6.01 ± 0.18. The same measure, in the same setting: to `CC(C)(C)OC(=O)NCCNCCCCCCOc1ccc(-c2ccc(C(=O)N[C@@H](CC(=O)O)C(=O)O)o2)cc1` [Compound 17, (S)-N-(2-((tert-Butoxycarbonyl)amino)ethyl)-6-(4-(5-((1,2-dicarboxyethyl)carbamoyl)furan-2-yl)phenoxy)hexan-1-aminium 2,2,2-trifluoroacetate] belongs 7.40 ± 0.11. Take `CNCCCCCCOc1ccc(-c2ccc(C(=O)N[C@@H](CC(=O)O)C(=O)O)o2)cc1` [Compound 20, (S)-6-(4-(5-((1,2-Dicarboxyethyl)carbamoyl)furan-2-yl)phenoxy)-N-methylhexan-1-aminium 2,2,2-trifluoroacetate]: on mSUCNR1 [2], the “cAMP mSUCNR1 pEC50” value was 7.35 ± 0.05. Still for that read-out and setting: to `CN(C)CCCCCCOc1ccc(-c2ccc(C(=O)N[C@@H](CC(=O)O)C(=O)O)o2)cc1` [Compound 21, (S)-6-(4-(5-((1,2-Dicarboxyethyl)carbamoyl)furan-2-yl)phenoxy)-N,N-dimethylhexan-1-aminium 2,2,2-trifluoroacetate] belongs 7.20 ± 0.02. Regarding `Cc1ccc(C(=O)Nc2ccccc2CC(=O)O)cc1-c1ccc(Cl)cc1` [Compound 34, 2-(2-(4′-Chloro-6-methyl-[1,1′-biphenyl]-3-carboxamido)phenyl)acetic acid], the “fold increase in potency relative to 32” value at hSUCNR1 [3] (hSUCNR1 cAMP) is given as 3 fold. Further, the “cAMP hSUCNR1 pIC50” value on hSUCNR1 [3] came out at 6.78 ± 0.01. Turning to `Cc1cc(Cl)ccc1-c1cccc(C(=O)Nc2ccccc2CC(=O)O)c1` [Compound 35, 2-(2-(4′-Chloro-2′-methyl-[1,1′-biphenyl]-3-carboxamido)phenyl)acetic acid], the “Competion binding using 22 mSUCNR1 pKi” value on mSUCNR1 [1] was <4.5 ^d.

Turning to `CC(C)(C)OC(=O)NCCN1CCN(Cc2ccc(-c3cccc(C(=O)Nc4ccccc4CC(=O)O)c3)cc2)CC1` [Compound 43, 1-(2-((tert-Butoxycarbonyl)amino)ethyl)-4-((3′-((2-(carboxymethyl)phenyl)carbamoyl)-[1,1′-biphenyl]-4-yl)methyl)piperazin-1-ium 2,2,2-trifluoroacetate], the “cAMP hSUCNR1 pIC50” value at hSUCNR1 [3] is 6.82 ± 0.02.

For the molecule `Cc1cc(CN2CCN(C)CC2)ccc1-c1cccc(C(=O)Nc2ccccc2CC(=O)O)c1` [Compound 44, 4-((3′-((2-(Carboxymethyl)phenyl)carbamoyl)-2-methyl-[1,1′-biphenyl]-4-yl)methyl)-1-methylpiperazin-1-ium 2,2,2-trifluoroacetate], the “Competion binding using 22 mSUCNR1 pKi” value on mSUCNR1 [1] is given as <4.5 ^d. In the case of `O=C(O)[C@H]1O[C@H]1C(=O)O` [Compound 47, cis-epoxysuccinic acid], the “Competion binding using 22 hSUCNR1 pKi” value on hSUCNR1 [4] is reported as 4.1 ± 0.1. For the same molecule, on hSUCNR1 [5], the “Competion binding using 46 hSUCNR1 pKi” value worked out at 4.1 ± 0.3. As for `O=C(O)CCc1cccc(Oc2ccc(Oc3cccc4cnccc34)cc2C(F)(F)F)c1` [Compound 48], the inhibitory constant (Ki) at hmSUCNR1 [6] and on hmSUCNR1 [7] was over 31.6 µM in each case. Moreover, the “Competion binding using 22 hSUCNR1 pKi” value on hSUCNR1 [4] is 5.9 ± 0.5. Also, the “Competion binding using 22 mSUCNR1 pKi” value on mSUCNR1 [1] is <4.5 ^d.

Values taken from article PMC10350927 (Journal of Medicinal Chemistry, 2023).
